# Reference: patent publication US20120214778A1 (priority 2009, published 2012)
# Assays:
# [1] = tested on: advanced breast cancer; settings: 250 mg, cited from earlier work
# [2] = tested on: oestrogen receptor positive advanced breast cancer; assay: CONFIRM phase III study, fulvestrant 500 mg vs 250 mg: efficacy; settings: for Number progressed / Number progressed (%): progressed or died at data cut-off; for Median DoR: from randomisation, patients with OR;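 for all read-outs here: efficacy outcomes summarised by randomised treatment arm using the full analysis set of patients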
# Procedure: The primary outcome variable TTP; secondary variables were ORR, CBR, DoR, DoCB and OS.
# For the primary endpoint TTP, the primary analysis was an unadjusted log-rank test and the secondary analysis was a Cox proportional hazard model, adjusted for treatment and other predefined covariates.
# For OS, the unadjusted log-rank test was performed. For ORR and CBR, a logistic regression model with treatment factor only was fitted. […] For HRQoL endpoints, a longitudinal model with treatment and other covariates was used.
# For efficacy and HRQoL endpoints, summaries and analyses were carried out according to the randomised treatment i.e., using the Full Analysis Set. For safety endpoints, summaries and analyses were carried out according to the treatment actually received, i.e., using the safety analysis set. The primary endpoint was also analysed in the per protocol set (PPS).
# Time to progression is the time between randomisation and the earliest of progression or death from any cause.
# [3] = CONFIRM phase III study: safety and tolerability (adverse events); format: in vivo, postmenopausal women
# Source text: Outcome variables for safety were frequency and severity of adverse events (AEs), including pre-specified AEs of interest.
# Patients could be discontinued from study treatment and assessments at any time at the discretion of the investigators. Patients were also free to discontinue their participation in the study at any time, without prejudice to further treatment. Specific reasons for discontinuing a patient from this study, and the procedures to be followed when a patient discontinued or was incorrectly enrolled, are listed in Section 3.3.5 of the CSP. For patients who discontinued, it was noted whether they were assessed after study medication was stopped, and whether they were asked about the reason(s) for their discontinuation and about the presence of any adverse events (AEs). If possible, they were seen and assessed by an investigator. AEs were followed up for 56 days after the last injection.
smiles,measurement,setting,value
"C[C@]12CC[C@@H]3c4ccc(O)cc4C[C@@H](CCCCCCCCC[S+]([O-])CCCC(F)(F)C(F)(F)F)[C@H]3[C@@H]1CC[C@@H]2O (stereo partly drawn) [fulvestrant, 7alpha-[9-(4,4,5,5,5-pentafluoropentylsulfinyl)-nonyl]estra-1,3,5, (10)-triene-3, 17beta-diol]",efficacy compared with anastrozole,[1]; Studies 20/21,non-inferior to anastrozole
same,Median TTP,[1]; combined analysis of Studies 20/21,5.5 months
same,Time to progression (months): 25% quartile,[2]; 250 mg,2.7 months
same,Time to progression (months): 75% quartile,[2]; 250 mg,11.9 months
same,expected DoCB (EDoCB),[2]; 250 mg,7.24 months
same,proportion of patients with a best objective response of progressive disease,[2]; 250 mg,44.7%
same,Median TTP,"[2]; 250 mg im every 28 days, N = 374",5.5 months
same,Percentage of patients progression free at 6 months,[2]; 250 mg,45%
same,% patients progression free at 12 months,[2]; 250 mg,25%
same,% patients progression free at 12 months,"[2]; 250 mg, listed as Fulvestrant",25%
same,Percentage of patients progression free at 18 months,[2]; 250 mg,14%
same,% patients alive at 24 months,[2]; 250 mg,fulvestrant 250 mg = 49%
same,Percentage of patients progression free at 24 months,[2]; 250 mg,11%
same,Number progressed,"[2]; 250 mg, N = 374",321
same,Number progressed (%),"[2]; 250 mg, N = 374",85.8%
same,Median DoR,[2]; 250 mg,250 mg = 16.4 months
same,Time to progression (months): 25% quartile,[2]; 500 mg,2.8 months
same,Time to progression (months): 75% quartile,[2]; 500 mg,16.6 months
same,expected DoCB (EDoCB),[2]; 500 mg,9.83 months
same,proportion of patients with a best objective response of progressive disease,[2]; 500 mg,38.7%
same,reduction in risk of death,[2]; 500 mg compared with 250 mg,16%
same,reduction in risk of progression,[2]; 500 mg compared with 250 mg,20%
same,Median TTP,"[2]; 500 mg im days 0, 14, 28 then every 28 days, N = 362",6.5 months
same,Ratio of EDoR (95% CI),"[2]; 500 mg vs 250 mg, from randomisation to progression",Ratio of EDoR = 0.894 (95% CI 0.479-1.667); p = 0.724
same,Percentage of patients progression free at 6 months,[2]; 500 mg,51%
same,% patients progression free at 12 months,[2]; 500 mg,34%
same,% patients progression free at 12 months,"[2]; 500 mg, listed as Fulvestrant",34%
same,Percentage of patients progression free at 18 months,[2]; 500 mg,23%
same,% patients alive at 24 months,[2]; 500 mg,% patients alive at 24 months: fulvestrant 500 mg = 53%;
same,Percentage of patients progression free at 24 months,[2]; 500 mg,16%
same,Number progressed,"[2]; 500 mg, N = 362",297
same,Number progressed (%),"[2]; 500 mg, N = 362",82.0%
same,Median DoR,[2]; 500 mg,Median DoR^c: fulvestrant 500 mg = 19.4 months; fulvestrant
same,"gastrointestinal disturbances (pre-specified AE), patients",[3]; 250 mg,approximately 20%
same,"joint disorders (pre-specified AE), patients",[3]; 250 mg,~19%
same,"gastrointestinal disturbances (pre-specified AE), patients",[3]; 500 mg,approximately 20%
same,"joint disorders (pre-specified AE), patients",[3]; 500 mg,~19%
same,tolerability,[3]; 500 mg,well tolerated
same,dose dependence of adverse events,[3]; 500 mg vs 250 mg,no evidence for dose dependence for any AE
